The values below come from patent publication US5246947A, “Substituted pyridinylamino-1,2-benzisothiazoles and their use for treating depression” (Hoechst-Roussel Pharmaceuticals Incorporated, priority 1992, dated 1993).

One test has as its target T1, α2-Receptor (Rattus norvegicus, UniProt P22909).
T1 construct: the cortical tissue rapidly dissected; from tissue; host or cells: cortical tissue of male Wistar rats, washed membrane suspension
T1 sequence (P22909 1-465): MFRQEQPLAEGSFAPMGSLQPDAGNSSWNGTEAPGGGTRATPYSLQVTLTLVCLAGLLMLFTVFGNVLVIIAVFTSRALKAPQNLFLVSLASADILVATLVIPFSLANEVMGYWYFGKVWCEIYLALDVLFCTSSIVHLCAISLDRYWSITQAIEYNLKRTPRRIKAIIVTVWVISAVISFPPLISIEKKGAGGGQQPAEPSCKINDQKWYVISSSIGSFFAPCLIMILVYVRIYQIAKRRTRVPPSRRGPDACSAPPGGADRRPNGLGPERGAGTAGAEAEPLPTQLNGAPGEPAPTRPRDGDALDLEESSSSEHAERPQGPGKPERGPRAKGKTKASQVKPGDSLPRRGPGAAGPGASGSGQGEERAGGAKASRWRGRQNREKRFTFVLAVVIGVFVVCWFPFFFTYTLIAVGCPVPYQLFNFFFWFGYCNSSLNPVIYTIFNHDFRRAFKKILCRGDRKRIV
In words: [^3 H]-Clonidine Binding: α2-Receptor. Also on record: species or system rat (male Wistar).

Another test concerns TPA-induced ear edema. In words: TPA-Induced Ear Edema (TPAEE). The format is in vivo, mouse (female Swiss Webster). The following applies: topical, ear plug weight after about 5 hours, Table 3. As for the experimental part:
The dermatological activity of the compounds was ascertained according to the following method.
TPA-Induced Ear Edema (TPAEE)
The purpose of this assay was to determine the ability of a topically applied compound to prevent ear edema induced by topical application of TPA (phorbol 12-myristate acetate). Female Swiss Webster mice topically received TPA (10 μg/ear) on the right ear and vehicle on the left ear. […] After about 5 hours, the animals are sacrificed and a 4 mm diameter plug is taken from each ear and weighed. The difference between the right and left ear plug weights for each animal was determined. The antiinflammatory activity of the test compound is expressed as the mean percent change in ear plug weight of the treated animals compared to the mean percent change in the plug weight of the control animals. (Young, J. M. et al., J. Invest. Dermatol., 80 (1983), pp. 48-52.)

Test [1] addresses T2, Brain AChE (acetylcholinesterase) (Rattus norvegicus, UniProt P37136).
T2 construct: corpora striata dissected free, weighed and homogenized in 19 volumes; from tissue; host or cells: corpora striata of male Wistar rats, whole homogenate
Description: biochemical. Also on record: species or system rat (male Wistar). The settings on record: rat striatum; 5 mM acetylthiocholine final; pH 7.2; Table 1; read-out: Inhibitory Concentration Brain AChE. An excerpt:
Cholinesterases are found throughout the body, both in the brain and in serum. However, only brain acetylcholinesterase (AChE) distribution is correlated with central cholinergic innervation. […] We have determined in vitro inhibition of acetylcholinesterase activity in rat striatum according to the method described below.
In Vitro Inhibition of Acetylcholinesterase Activity in Rat Striatum
The method described below was used in this invention for assaying anticholinesterase activity. This is a modification of the method of Ellman et al., Biochem. Pharmacol. 7, 88 (1961).
1. 0.05M Phosphate buffer, pH 7.2
(c) add (a) to (b) until pH reaches 7.2
4. A 2 mM stock solution of the test drug is made up in a suitable solvent and brought to volume with 0.5 mM DTNB (reagent 3). Drugs are serially diluted (1:10) such that the final concentration (in cuvette) is 10^-4 M and screened for activity. If active, IC50 values are determined from the inhibitory activity of subsequent concentrations.
Enzyme activity is measured with the Beckman DU-50 spectrophotometer. This method can be used for IC50 determinations and for measuring kinetic constants.
Reagents are added to the blank and sample cuvettes as follows:
This program also calculates the rate of absorbance change for each cuvette.
Substrate concentration is 10 mM diluted 1:2 in assay yielding final concentration of 5 mM.

The test system of test [2] is serotonin (5-hydroxytryptamine, 5HT) uptake. Description: [^3 H]-Serotonin Uptake in Rat Whole Brain and Hypothalamic Synaptosomes. The format is biochemical, rat (male CR Wistar). The following applies: [^3 H]-5HT 50 nM, 37° C., 5 min, Table 2. The procedure:
[^3 H]-Serotonin Uptake in Rat Whole Brain and Hypothalamic Synaptosomes
This activity is determined in an assay which measures [^3 H]-serotoninuptake in rat whole brain and hypothalamic synaptosomes.
Male CR Wistar rats (100-125 g)
Prepare a 1 liter batch containing the following salts.
3. A 0.1 mM stock solution of serotonin creatinine SO4 is made up in 0.01N HCl. This is used to dilute the specific activity of the radiolabeled 5HT.
4. 5-[1,2-^3 H(N)]-Hydroxytryptamine creatinine sulfate (serotonin), specific activity 20-30 Ci/mmol, is used.
The final desired concentration of [^3 H]-5HT in the assay is 50 nM. The dilution factor is 0.8. The KHBB is made up to contain 62.5 nM of [^3 H]-5HT.
5. For most assays, a 1 mM stock solution of the test compound is made up in a suitable solvent and serially diluted such that the final concentration in the assay ranges from 2×10^-8 to 2×10^-5 M. Seven concentrations are used for each assay.
Male Wistar rats are decapitated and the brain rapidly removed.
Tubes are incubated at 37° C. under a 95% O2 /5% CO2 atmosphere for 5 minutes. For each assay, 3 tubes are incubated with 20 μl of vehicle at 0° C. in an ice bath. After incubation all tubes are immediately centrifuged at 4000 g for 10 minutes. […] The tubes are vigorously vortexted, decanted into scintillation vials, and counted in 10 ml of Liquiscint scintillation counting cocktail. […]

Test [3] concerns norepinephrine (NE) uptake. Description: [^3 H]-Norepinephrine Uptake in Rat Whole Brain Synaptosomes. The following applies: [^3 H]-NE 50 nM, 37° C., 5 min, Table 2. The format is biochemical, rat (male CR Wistar).

Where a name gives a salt, the structure may show the parent alone. Read-outs that look alike come from different tables or passages of the source.

T2 sequence (P37136 32-614): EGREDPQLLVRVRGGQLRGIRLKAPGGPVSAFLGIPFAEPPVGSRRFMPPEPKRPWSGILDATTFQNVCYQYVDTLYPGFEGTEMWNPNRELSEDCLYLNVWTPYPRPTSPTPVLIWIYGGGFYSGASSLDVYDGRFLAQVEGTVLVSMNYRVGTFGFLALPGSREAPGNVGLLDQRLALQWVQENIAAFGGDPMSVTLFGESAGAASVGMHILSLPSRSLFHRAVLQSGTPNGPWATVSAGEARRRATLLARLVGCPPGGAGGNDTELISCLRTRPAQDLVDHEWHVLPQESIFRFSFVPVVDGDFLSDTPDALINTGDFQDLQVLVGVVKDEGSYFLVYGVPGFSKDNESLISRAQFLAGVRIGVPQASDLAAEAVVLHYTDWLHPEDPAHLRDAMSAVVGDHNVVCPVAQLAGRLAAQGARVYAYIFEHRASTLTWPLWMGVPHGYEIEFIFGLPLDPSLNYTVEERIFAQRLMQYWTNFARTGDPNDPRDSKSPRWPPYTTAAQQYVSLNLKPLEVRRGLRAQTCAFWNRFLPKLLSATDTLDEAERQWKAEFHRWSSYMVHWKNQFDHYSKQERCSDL
Description for α2-Receptor: [^3 H]-Clonidine Binding: α2 -Receptor
The purpose of this assay is to assess the interaction of compounds with central α2 -receptors.
a. 57.2 g Tris HCl 16.2 Tris Base-bring to 1 liter (0.5M Tris buffer, pH 7.7) b. Make a 1:10 dilution in distilled H2 O (0.05M Tris buffer, pH 7.7)
Tris buffer containing physiological ions b. Dilute 1:10 in distilled H2 O. This yields 0.05 M Tris HCl, pH 7.7; containing NaCl (120 mM), KCl (5 mM), CaCl2 (2 mM) and MgCl2 (1 mM) 3. [4-^3 H]-Clonidine hydrochloride (20-30 Ci/mmol) is obtained from New England Nuclear.
Clonidine-HCl is obtained from Boehringer Ingelheim. A stock solution of 0.1 mM clonidine is made up to determine nonspecific binding. This yields a final concentration of 1 μM in the assay (20 μl to 2 ml).
Male Wistar rats are sacrified by decapitation and the cortical tissue rapidly dissected. The tissue is homogenized in 50 volumes of 0.05M Tris buffer, pH 7.7 (buffer 1b) with the Brinkman Polytron, then centrifuged at 40,000 g for 15 minutes. […]
Tissue homogenates are incubated for 20 minutes at 25° C. with 3 nM [^3 H]-clonidine and varying drug concentrations, then immediately filtered under reduced pressure on Whatman GF/B filters. […] Ten ml of liquiscint counting solution is added to each sample which is then counted by liquid scintillation spectroscopy. […] IC50 values are calculated using log-probit analysis.

On to `Cn1ccc2cc(Nc3ccncc3)ccc21` [1-Methyl-5-(4-pyridinylamino)-1H-indole], for which, on α2-Receptor, the IC50 amounted to 12 nM. Also, the “Edema Reduction” value in the test on TPA-induced ear edema (10 μg/ear) is -67%.

For the compound `CCCN(c1ccncc1)c1ccc2c(ccn2C)c1` [1-Methyl-5-(propyl-4-pyridinylamino)-1H-indole maleate], the IC50 in test [1] came out at 31900 nM; in test [2], 760 nM; in test [3] it was 34 nM; at α2-Receptor (rat cortical tissue, 3 nM [^3 H]-clonidine, 25° C., 20 min, Table 2, read-out: [^3 H]-Clonidine Binding IC50), 330 nM.

With `CN(C)CCC=C1c2ccccc2CCc2ccccc21` [Amitriptyline], in test [3], the IC50 was found to be 7700 nM.

Take `COc1ccc2c(c1)c(CC(=O)O)c(C)n2C(=O)c1ccc(Cl)cc1` [Indomethacin, reference compound]: in the test on TPA-induced ear edema (at 1 mg/ear), the “Edema Reduction” value is -86%.

With `CNCCC=C1c2ccccc2CCc2ccccc21` [Notriptyline], the IC50 in test [3] is 4000 nM.
